Test results published in the NIST ThermoML archive (doi:10.1016/j.jct.2016.12.021).
Numbers after ± are expanded uncertainties.

Settings: Liquid, Closed cell (Static) method

vapor or sublimation pressure (293.18 K) [kPa] | vapor or sublimation pressure (298.15 K) [kPa] | vapor or sublimation pressure (313.15 K) [kPa] | vapor or sublimation pressure (323.15 K) [kPa] | vapor or sublimation pressure (353.15 K) [kPa] | Compound
836.8 ± 2.4 | 950.8 ± 2.8 | 1380.1 ± 10 | 1713 ± 4.5 | 3135.4 ± 6.2 | CCC [propane]
4171.7 ± 11 | 4709.3 ± 12 | – | – | – | FC(F)F [trifluoromethane]
